# In paper PMC8887546, “Design and Synthesis of Brain Penetrant Glycopeptide Analogues of PACAP With Neuroprotective Potential for Traumatic Brain Injury and Parkinsonism” (Frontiers in drug discovery, 2022):
# Assays:
# Type in all cases: cell-based
# human VPAC2 receptor = target: T1, human VPAC2 receptor (Homo sapiens, UniProt P41587); test: cAMP stimulation in CHO cells expressing VPAC2; conditions: for Emax: CHO; for Receptor selectivity ratio VPAC2/PAC1 / Receptor selectivity ratio VPAC2/VPAC1: ratio of cAMP EC50 values
# T1 construct: expressed in transfected cells; host or cells: CHO cells (G418 selection)
# T1 sequence (P41587 24-438): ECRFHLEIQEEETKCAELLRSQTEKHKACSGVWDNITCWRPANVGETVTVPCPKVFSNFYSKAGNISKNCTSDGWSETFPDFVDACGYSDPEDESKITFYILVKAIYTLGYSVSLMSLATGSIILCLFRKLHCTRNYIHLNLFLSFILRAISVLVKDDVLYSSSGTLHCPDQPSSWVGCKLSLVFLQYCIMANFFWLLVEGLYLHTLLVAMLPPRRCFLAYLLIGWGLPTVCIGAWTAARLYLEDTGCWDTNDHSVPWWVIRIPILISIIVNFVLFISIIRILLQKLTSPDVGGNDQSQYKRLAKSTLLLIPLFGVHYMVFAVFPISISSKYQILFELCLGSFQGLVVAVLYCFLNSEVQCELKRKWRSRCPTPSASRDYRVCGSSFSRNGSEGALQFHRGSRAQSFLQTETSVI
# Experimental: (§1) Briefly, human PAC1, VPAC1, and VPAC2 receptors expressed in CHO cells were used for all experiments. Cells were grown in 50:50 DMEM-F12 medium with 10% heat-inactivated fetal bovine serum, 1X penicillin-streptomycin supplement, and 500 μg/ml G418 (neomycin) to maintain selection (all from ThermoFisher) at 37°C with 5% CO2 atmosphere. For the cAMP assay, cells were seeded at 20,000 cells/well in a 96 well plate, recovered overnight, then serum starved for 4 h. The cells were then incubated with 500 μM IBMX for 20 min, followed by agonist concentration curves in 500 μM IBMX media for 10 min. The reaction was terminated, boiled, then collected, followed by competition with 7 μg of bovine protein kinase A (Sigma-Aldrich) and ∼1 pmol of ^3H-cAMP (PerkinElmer). The assay was incubated at room temp for 1 h, then collected onto GF/B filter plates and the data read using a MicroBeta2 scintillation counter (PerkinElmer).
# human PAC1 receptor = target: T2, human PAC1 receptor (Homo sapiens, UniProt P41586); test: cAMP stimulation in CHO cells expressing PAC1; conditions: for Emax: CHO
# T2 construct: expressed in transfected cells; host or cells: CHO cells (G418 selection)
# T2 sequence (P41586 21-468): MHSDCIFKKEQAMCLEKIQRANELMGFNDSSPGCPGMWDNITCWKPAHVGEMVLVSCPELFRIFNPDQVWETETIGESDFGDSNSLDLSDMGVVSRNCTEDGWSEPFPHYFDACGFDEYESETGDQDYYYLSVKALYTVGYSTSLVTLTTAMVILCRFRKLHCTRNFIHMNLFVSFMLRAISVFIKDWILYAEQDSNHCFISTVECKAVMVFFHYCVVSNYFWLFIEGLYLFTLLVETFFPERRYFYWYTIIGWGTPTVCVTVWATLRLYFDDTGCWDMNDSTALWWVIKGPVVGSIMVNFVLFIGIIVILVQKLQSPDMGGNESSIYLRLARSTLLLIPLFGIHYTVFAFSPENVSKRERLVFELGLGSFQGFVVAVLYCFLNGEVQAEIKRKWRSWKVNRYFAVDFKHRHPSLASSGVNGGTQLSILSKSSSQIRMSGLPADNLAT
# Experimental: as §1
# human VPAC1 receptor = target: T3, human VPAC1 receptor (Homo sapiens, UniProt P32241); test: cAMP stimulation in CHO cells expressing VPAC1; conditions: for Emax: CHO, read-out: VPAC1 Emax; for EC50: read-out: VPAC1 EC50; for Receptor selectivity ratio VPAC1/PAC1: ratio of cAMP EC50 values
# T3 construct: expressed in transfected cells; host or cells: CHO cells (G418 selection)
# T3 sequence (P32241 31-457): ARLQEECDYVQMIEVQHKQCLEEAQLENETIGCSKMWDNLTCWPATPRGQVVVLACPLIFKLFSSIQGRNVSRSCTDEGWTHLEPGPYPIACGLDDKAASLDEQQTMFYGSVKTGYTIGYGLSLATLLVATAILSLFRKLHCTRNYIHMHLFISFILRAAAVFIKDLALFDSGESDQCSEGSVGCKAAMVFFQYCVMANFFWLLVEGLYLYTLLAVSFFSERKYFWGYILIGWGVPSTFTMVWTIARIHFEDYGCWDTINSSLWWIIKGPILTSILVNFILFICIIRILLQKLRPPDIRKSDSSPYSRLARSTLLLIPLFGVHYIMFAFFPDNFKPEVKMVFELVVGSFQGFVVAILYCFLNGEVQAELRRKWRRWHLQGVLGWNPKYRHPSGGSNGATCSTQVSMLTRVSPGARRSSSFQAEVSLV
SMILES,EC50 (human VPAC2 receptor) [nM],EC50 (human PAC1 receptor) [nM],Emax (human PAC1 receptor) [%],Emax (human VPAC1 receptor) [%],EC50 (human VPAC1 receptor) [nM],Emax (human VPAC2 receptor) [%],Receptor selectivity ratio VPAC2/PAC1 (human VPAC2 receptor),Receptor selectivity ratio VPAC2/VPAC1 (human VPAC2 receptor),Receptor selectivity ratio VPAC1/PAC1 (human VPAC1 receptor)
CCC[C@H](NC(=O)[C@H](CCC(N)=O)NC(=O)[C@H](CCCCN)NC(=O)[C@H](CCCNC(=N)N)NC(=O)[C@H](Cc1ccc(O)cc1)NC(=O)[C@H](CCCNC(=N)N)NC(=O)[C@H](CO)NC(=O)[C@H](Cc1ccc(O)cc1)NC(=O)[C@H](CO)NC(=O)[C@H](CC(=O)O)NC(=O)[C@@H](NC(=O)[C@H](Cc1ccccc1)NC(=O)[C@@H](NC(=O)CNC(=O)[C@H](CC(=O)O)NC(=O)[C@@H](CO)NC(=O)[C@H](Cc1c[nH]cn1)NC(C)=O)[C@@H](C)CC)[C@@H](C)O)C(=O)N[C@@H](C)C(=O)N[C@H](C(=O)N[C@@H](CCCCN)C(=O)N[C@@H](CCCCN)C(=O)N[C@@H](Cc1ccc(O)cc1)C(=O)N[C@@H](CC(C)C)C(=O)N[C@@H](C)C(=O)N[C@@H](C)C(=O)N[C@H](C(=O)N[C@@H](CC(C)C)C(=O)N[C@@H](CO[C@@H]1O[C@H](CO)[C@@H](O)[C@H](O)[C@H]1O)C(N)=O)C(C)C)C(C)C [Ac-CRA3000],–,–,90,94,–,106,–,–,–
CCC[C@H](NC(=O)[C@H](CCC(N)=O)NC(=O)[C@H](CCCCN)NC(=O)[C@H](CCCNC(=N)N)NC(=O)[C@H](Cc1ccc(O)cc1)NC(=O)[C@H](CCCNC(=N)N)NC(=O)[C@H](CO)NC(=O)[C@H](Cc1ccc(O)cc1)NC(=O)[C@H](CO)NC(=O)[C@H](CC(=O)O)NC(=O)[C@@H](NC(=O)[C@H](Cc1ccccc1)NC(=O)[C@@H](NC(=O)[C@@H](C)NC(=O)[C@H](CC(=O)O)NC(=O)[C@@H](CO)NC(=O)[C@@H](N)Cc1c[nH]cn1)[C@@H](C)CC)[C@@H](C)O)C(=O)N[C@@H](C)C(=O)N[C@H](C(=O)N[C@@H](CCCCN)C(=O)N[C@@H](CCCCN)C(=O)N[C@@H](Cc1ccc(O)cc1)C(=O)N[C@@H](CC(C)C)C(=O)N[C@@H](C)C(=O)N[C@@H](C)C(=O)N[C@H](C(=O)N[C@@H](CC(C)C)C(=O)N[C@@H](CO[C@@H]1O[C@H](CO)[C@@H](O)[C@H](O)[C@H]1O)C(N)=O)C(C)C)C(C)C [CRA3021],517,32.3,90,103,37.7,74,16.01,13.71,1.17
CCC[C@H](NC(=O)[C@H](CCC(N)=O)NC(=O)[C@H](CCCCN)NC(=O)[C@H](CCCNC(=N)N)NC(=O)[C@H](Cc1ccc(O)cc1)NC(=O)[C@H](CCCNC(=N)N)NC(=O)[C@H](CO)NC(=O)[C@H](Cc1ccc(O)cc1)NC(=O)[C@H](CO)NC(=O)[C@H](CC(=O)O)NC(=O)[C@@H](NC(=O)[C@H](Cc1ccccc1)NC(=O)[C@@H](NC(=O)CNC(=O)[C@H](CC(=O)O)NC(=O)[C@@H](CO)NC(=O)[C@@H](N)Cc1c[nH]cn1)[C@@H](C)CC)[C@@H](C)O)C(=O)N[C@@H](C)C(=O)N[C@H](C(=O)N[C@@H](CCCCN)C(=O)N[C@@H](CCCCN)C(=O)N[C@@H](Cc1ccc(O)cc1)C(=O)N[C@@H](CC(C)C)C(=O)N[C@@H](C)C(=O)N[C@@H](C)C(=O)N[C@H](C(=O)N[C@@H](CC(C)C)C(=O)N[C@@H](CO[C@@H]1O[C@H](CO)[C@@H](O[C@@H]2O[C@H](CO)[C@H](O)[C@H](O)[C@H]2O)[C@H](O)[C@H]1O)C(N)=O)C(C)C)C(C)C [CRA 3000-Lac],–,–,92,96,–,116,–,–,–
CCC[C@H](NC(=O)[C@H](CCC(N)=O)NC(=O)[C@H](CCCCN)NC(=O)[C@H](CCCNC(=N)N)NC(=O)[C@H](Cc1ccc(O)cc1)NC(=O)[C@H](CCCNC(=N)N)NC(=O)[C@H](CO)NC(=O)[C@H](Cc1ccc(O)cc1)NC(=O)[C@H](CO)NC(=O)[C@H](CC(=O)O)NC(=O)[C@@H](NC(=O)[C@H](Cc1ccccc1)NC(=O)[C@@H](NC(=O)[C@@H](C)NC(=O)[C@H](CC(=O)O)NC(=O)[C@@H](CO)NC(=O)[C@H](Cc1c[nH]cn1)NC(C)=O)[C@@H](C)CC)[C@@H](C)O)C(=O)N[C@@H](C)C(=O)N[C@H](C(=O)N[C@@H](CCCCN)C(=O)N[C@@H](CCCCN)C(=O)N[C@@H](Cc1ccc(O)cc1)C(=O)N[C@@H](CC(C)C)C(=O)N[C@@H](C)C(=O)N[C@@H](C)C(=O)N[C@H](C(=O)N[C@@H](CC(C)C)C(=O)N[C@@H](CO[C@@H]1O[C@H](CO)[C@@H](O)[C@H](O)[C@H]1O)C(N)=O)C(C)C)C(C)C [Ac-CRA3021],–,–,96,111,–,93,–,–,–

# Next, values leading:
EC50 (human VPAC2 receptor) [nM],EC50 (human PAC1 receptor) [nM],Emax (human PAC1 receptor) [%],Emax (human VPAC1 receptor) [%],EC50 (human VPAC1 receptor) [nM],Emax (human VPAC2 receptor) [%],Receptor selectivity ratio VPAC2/PAC1 (human VPAC2 receptor),Receptor selectivity ratio VPAC2/VPAC1 (human VPAC2 receptor),Receptor selectivity ratio VPAC1/PAC1 (human VPAC1 receptor),SMILES
> 2500,> 250,-79,93,5.9,–,–,–,–,CCC[C@H](NC(=O)[C@H](CCC(N)=O)NC(=O)[C@H](CCCCN)NC(=O)[C@H](CCCNC(=N)N)NC(=O)[C@H](Cc1ccc(O)cc1)NC(=O)[C@H](CCCNC(=N)N)NC(=O)[C@H](CO)NC(=O)[C@H](Cc1ccc(O)cc1)NC(=O)[C@H](CO)NC(=O)[C@H](CC(=O)O)NC(=O)[C@@H](NC(=O)[C@H](Cc1ccccc1)NC(=O)[C@@H](NC(=O)CNC(=O)[C@H](CC(=O)O)NC(=O)[C@@H](CO)NC(=O)[C@@H](N)Cc1c[nH]cn1)[C@@H](C)CC)[C@@H](C)O)C(=O)N[C@@H](C)C(=O)N[C@H](C(=O)N[C@@H](CCCCN)C(=O)N[C@@H](CCCCN)C(=O)N[C@@H](Cc1ccc(O)cc1)C(=O)N[C@@H](CC(C)C)C(=O)N[C@@H](C)C(=O)N[C@@H](C)C(=O)N[C@@H](CO[C@@H]1O[C@H](CO)[C@@H](O)[C@H](O)[C@H]1O)C(=O)N[C@@H](CC(C)C)C(N)=O)C(C)C [CRA3002]
189,10.6,95,94,4.8,109,17.83,39.38,0.45,CCCC[C@H](NC(=O)CNC(=O)[C@H](CC(=O)O)NC(=O)[C@@H](CO)NC(=O)[C@@H](N)Cc1c[nH]cn1)C(=O)N[C@@H](Cc1ccccc1)C(=O)N[C@H](C(=O)N[C@@H](CC(=O)O)C(=O)N[C@@H](CO)C(=O)N[C@@H](Cc1ccc(O)cc1)C(=O)N[C@@H](CO)C(=O)N[C@@H](CCCNC(=N)N)C(=O)N[C@@H](Cc1ccc(O)cc1)C(=O)N[C@@H](CCCNC(=N)N)C(=O)N[C@@H](CCCCN)C(=O)N[C@@H](CCC(N)=O)C(=O)N[C@@H](CCC)C(=O)N[C@@H](C)C(=O)N[C@H](C(=O)N[C@@H](CCCCN)C(=O)N[C@@H](CCCCN)C(=O)N[C@@H](Cc1ccc(O)cc1)C(=O)N[C@@H](CC(C)C)C(=O)N[C@@H](C)C(=O)N[C@@H](C)C(=O)N[C@H](C(=O)N[C@@H](CC(C)C)C(=O)N[C@@H](CO[C@@H]1O[C@H](CO)[C@@H](O)[C@H](O)[C@H]1O)C(N)=O)C(C)C)C(C)C)[C@@H](C)O [CRA3017]
> 2500,847,65,72,649,74,–,–,0.77,CCCC[C@@H](NC(=O)CNC(=O)[C@H](CC(=O)O)NC(=O)[C@@H](CO)NC(=O)[C@@H](N)Cc1c[nH]cn1)C(=O)N[C@@H](Cc1ccccc1)C(=O)N[C@H](C(=O)N[C@@H](CC(=O)O)C(=O)N[C@@H](CO)C(=O)N[C@@H](Cc1ccc(O)cc1)C(=O)N[C@@H](CO)C(=O)N[C@@H](CCCNC(=N)N)C(=O)N[C@@H](Cc1ccc(O)cc1)C(=O)N[C@@H](CCCNC(=N)N)C(=O)N[C@@H](CCCCN)C(=O)N[C@@H](CCC(N)=O)C(=O)N[C@@H](CCC)C(=O)N[C@@H](C)C(=O)N[C@H](C(=O)N[C@@H](CCCCN)C(=O)N[C@@H](CCCCN)C(=O)N[C@@H](Cc1ccc(O)cc1)C(=O)N[C@@H](CC(C)C)C(=O)N[C@@H](C)C(=O)N[C@@H](C)C(=O)N[C@H](C(=O)N[C@@H](CC(C)C)C(=O)N[C@@H](CO[C@@H]1O[C@H](CO)[C@@H](O)[C@H](O)[C@H]1O)C(N)=O)C(C)C)C(C)C)[C@@H](C)O [CRA3019]
